Literature values as cited in patent US4996231A, “Triyne cyclic carbonates” (Merck & Co., Inc., priority 1989, dated 1991).

Columns and labels:
cytosolic β-ketothiolase = conditions: initial enzyme of cholesterol biosynthesis
[1] = tested on: certain bacterial strains

C#CC#CC#CC(O)C1OC(=O)OC1CCCCCCC(=O)O (stereo not shown) [triyne carbonate A, 5-(1-hydroxy-2,4,6-heptatriynyl)-2-oxo-1,3 dioxolane 4heptanoic acid]
instability of the compound in vivo: relative instability
active against certain fungal strains (certain fungal strains): active against certain fungal and bacterial strains
inhibitor of cytosolic β-ketothiolase (cytosolic β-ketothiolase): potent inhibitor
active against certain bacterial strains [1]: active against certain fungal and bacterial strains
